Where two headings read alike, the source gives them in different places.
What was measured:
[1] = system: fungal and bacterial biofilms; experiment: Biofilm assays (sustained inhibition and disruption), fungal and bacterial biofilms; format: cell-based; details: for Effect on bacterial or fungal biofilms in both assays: sustained inhibition and disruption; for Effect on biofilms: single component on its own
Procedure: (§1) Two types of biofilm assays were performed: a sustained inhibition assay and a disruption assay. The sustained inhibition assay assesses the compound's ability to prevent biofilm development throughout all stages of biofilm formation, while the disruption assay assesses the compound's ability to break up an existing mature biofilm. These assays are described in detail in the following article: Lohse, M. B., Gulati, M., Valle Arevalo, A., Fishburn, A., Johnson, A. D., and Nobile, C. J. (2017) Assessment and optimizations of Candida albicans in vitro biofilm assays. Antimicrobial Agents and Chemotherapy 61: e02749-16.
(§2) For fungal biofilm assays, all solutions were prepared in RPMI 1640 medium. All bacterial biofilm solutions were prepared in Trypic Soy Broth (TSB), supplemented with 1% glucose (henceforth referred to as TSB-G). All subsequent procedures were performed in a manner that maintained sterility. A solution of each amino acid to be tested was prepared in weight to volume concentrations ranging from 0.1-5.0%. Amino acids were also tested in combinations. Compound solutions were homogenized with gentle agitation in the dark (4° C., 24 hours) before use.
(§3) All biofilm assays were performed using 384-well non-tissue culture treated polystyrene plates. The fungal species tested are as follows: Candida albicans, Candida guilhermondii, Candida parapsilosis, Candida glabrata, Candida tropicalis, Candida dubliniensis, and Candida auris. The bacterial species tested are as follows: Staphylococcus aureus (standard wild type and methicillin-resistant strain USA300), Escherichia coli, Pseudomonas aeruginosa and Staphylococcus epidermidis.
(§4) Fungal strains were streaked on Yeast Peptone Dextrose (YPD) agar plates and incubated at 30° C. for 48 hours. A single colony from each strain to be tested was inoculated into YPD broth and grown for 12 hours, at 30° C., shaking at 225 rpm. For the fungal biofilm inhibition assay, 1 μl of saturated overnight cell culture was added to either 80 μL of RPMI-1640 or RPMI-1640 supplemented with the amino acid compound solution to be tested, in a 384-well plate. The cells were allowed to adhere to the plate for 90 minutes at 37° C. with shaking (350 rpm). Loosely bound cells were washed once with phosphate buffered saline (PBS) and 80 ul of RPMI-1640, or RPMI-1640 supplemented with the amino acid compound solution was added to the plate. The plate was further incubated for 24 hours at 37° C. with shaking (350 rpm). Media was carefully aspirated and the biofilm was measured by optical density at 600 nm. Twelve replicates were performed for each tested condition and the reported values are normalized to the control (RPMI-1640 media only). For the fungal biofilm disruption assays, 80 μL of RPMI-1640 was added to the plate, along with 1 μL of overnight cell culture. The cells were allowed to adhere to the plate for 90 minutes at 37° C. with shaking (350 rpm). Loosely bound cells were washed once with PBS and 80 μL of RPMI-1640 was added to the plate. The plate was further incubated for 24 hours at 37° C. with shaking (350 rpm). Media was carefully aspirated from the mature biofilm and 80 μL of RPMI-1640, or RPMI-1640 supplemented with the amino acid compound solution to be tested, was gently added to the plate. The plate was further incubated for 24 hours at 37° C. with shaking (350 rpm). Media was carefully aspirated and the biofilm was measured by optical density at 600 nm. Twelve replicates were performed for each tested condition and the reported values are normalized to the control (RPMI-1640 media only).
Bacterial strains were streaked on Blood Agar plates (5% sheep blood in Tryptic Soy Agar) and incubated at 37° C. for 24 hours. A single colony from each strain to be tested was inoculated in a TSB broth and grown for 12 hours, at 37° C. with shaking (225 rpm).

S. aureus [2] = experiment: Sustained inhibition biofilm assay, bacterial; format: cell-based, Staphylococcus aureus; details: for activation at 1 %: Staphylococcus aureus, read-out: Promote B Biofilm
Procedure: as §1, with “J. (2017) Assessment and optimizations of Candida albicans in vitro biofilm assays.” left out
as §2, with “All” for “For fungal biofilm assays, all solutions were prepared in RPMI 1640 medium. All”
(§5) Bacterial strains were streaked on Blood Agar plates (5% sheep blood in Tryptic Soy Agar) and incubated at 37° C. for 24 hours. A single colony from each strain to be tested was inoculated in a TSB broth and grown for 12 hours, at 37° C. with shaking (225 rpm). For the bacterial biofilm inhibition assays, 1 μL of saturated overnight cell culture was added to either 80 μL of TSB-G, or TSB-G supplemented with the amino acid compound solution to be tested, in a 384-well plate. The cells were allowed to adhere to the plate for 60 minutes at 37° C. without shaking. The media was carefully aspirated and 80 μL of TSB-G, or TSB-G supplemented with the amino acid compound solution was added to the plate. The plate was further incubated for 24 hours at 37° C. without shaking. Media was carefully aspirated and the biofilm was measured by optical density at 600 nm. Eight or twelve replicates were performed for each tested condition and the reported values are normalized to the control (TSB-G media only). For the bacterial biofilm disruption assays, 80 μL of TSB-G was added to the plate, along with 1 μL of overnight cell culture. The cells were allowed to adhere to the plate for 60 minutes at 37° C. with no shaking. The media was carefully aspirated and 80 μL of TSB-G was added to the plate. The plate was further incubated for 24 hours at 37° C. with no shaking. Media was carefully aspirated from the mature biofilm and 80 μL of TSB-G, or TSB-G supplemented with the amino acid to be tested, was gently added to the plate. The plate was further incubated for 24 hours at 37° C. without shaking. Media was aspirated and the biofilm was measured by optical density at 600 nm. Twelve replicates were performed for each tested condition and the reported values are normalized to the control (TSB-G media only).

S. aureus [3] = experiment: Disruption biofilm assay, bacterial; format: cell-based, Staphylococcus aureus; details: for inhibition at 1 % / activation at 1 %: Staphylococcus aureus; for inhibition at 1 %: 24 h, read-out: Reduce B Biofilm; for activation at 1 %: read-out: Promote B Biofilm
Procedure: as §1, with “J. (2017) Assessment and optimizations of Candida albicans in vitro biofilm assays.” left out
as §2, with “All” for “For fungal biofilm assays, all solutions were prepared in RPMI 1640 medium. All”
as §5

bacterial biofilms = experiment: Biofilm assays (sustained inhibition and/or disruption), bacterial biofilms; format: cell-based; details: in at least one of the two biofilm assays; for Anti-biofilm effect against bacterial biofilms (reduction): administered individually at about 0.1 to about 5.0% weight to volume
Procedure: as §1, §2, §3, §5

fungal biofilms = experiment: Biofilm assays (sustained inhibition and/or disruption), fungal biofilms; format: cell-based; details: administered individually; in at least one of the two biofilm assays
Procedure: as §1, §2, §3, §4

[4] = sustained inhibition assay, S. aureus, 1% amino acid (unless specifically noted), p≤0.001
[5] = disruption assay, S. aureus, 1% amino acid (unless specifically noted), p≤0.001

Compound | activation at 1 % (S. aureus [3]; [5]) [%] | Effect on bacterial biofilm growth (bacterial biofilms) | activation at 1 % (S. aureus [2]; [4]) [%] | further results
Cn1cnc(C[C@H](N)C(=O)O)c1 [1-Methylhistidine, 1-methyl-L-histidine] |  |  |  | Effect on bacterial or fungal biofilms in both assays [1]: neutral
NC(CCCC(=O)O)C(=O)O (stereo not drawn) [2 Aminoadipic Acid, 2-aminoadipic acid] |  |  |  | Reduce B Biofilm (S. aureus [2]; [4]): ● (a single dot [ie. •] signifies minor effect (from about 10 to about 30% change)); inhibition at 1 % (S. aureus [3]; [5]): 10 to 30%; Anti-biofilm effect against bacterial biofilms (reduction) (bacterial biofilms): less than twofold
CCC(N)C(=O)O (stereo not drawn) [2 Aminobutyric Acid, 2-aminobutyric acid] |  |  |  | Effect on bacterial or fungal biofilms in both assays [1]: neutral
C[C@H](N)C(=O)O [Alanine, L-alanine] | 10 to 30 | support (improve) bacterial biofilm growth |  | 
N=C(N)NCCC[C@H](N)C(=O)O [Arginine, L-arginine] |  | support (improve) bacterial biofilm growth |  | activation at 1 % (S. aureus [2]): 10 to 30%; activation at 1 % (S. aureus [3]): 10 to 30%
NC(=O)C[C@H](N)C(=O)O [Asparagine, L-asparagine] |  | support (improve) bacterial biofilm growth | 10 to 30 | 
NCCC(=O)O [Beta-Alanine, Beta-alanine] |  |  |  | Reduce B Biofilm (S. aureus [2]; [4]): ● (a single dot [ie. •] signifies minor effect (from about 10 to about 30% change)); Anti-biofilm effect against bacterial biofilms (reduction) (bacterial biofilms): less than twofold
NC(=O)NCCC[C@H](N)C(=O)O [Citrulline, L-citrulline] |  | support (improve) bacterial biofilm growth |  | activation at 1 % (S. aureus [2]): 10 to 30%; activation at 1 % (S. aureus [3]): 10 to 30%
N[C@@H](CCSC[C@H](N)C(=O)O)C(=O)O [Cystathionine (0.2%), L-cystathionine] |  |  |  | inhibition at 1 % (S. aureus [3]; [5]): 10 to 30%
NCC(=O)O [Glycine, L-glycine] | 10 to 30 | support (improve) bacterial biofilm growth | 10 to 30 | 
N[C@@H](Cc1c[nH]cn1)C(=O)O [Histidine, L-histidine] |  |  |  | Effect on bacterial or fungal biofilms in both assays [1]: neutral
N[C@@H](CCS)C(=O)O [Homocysteine (0.4%), L-homocysteine] |  |  |  | Anti-biofilm effect against fungal biofilms (reduction) (fungal biofilms): less than twofold
O=C(O)[C@@H]1C[C@@H](O)CN1 [Hydroxyproline, Trans-4-hydroxy-L-proline] |  |  |  | Reduce B Biofilm (S. aureus [2]; [4]): ● (a single dot [ie. •] signifies minor effect (from about 10 to about 30% change)); inhibition at 1 % (S. aureus [3]): 10 to 30%; Anti-biofilm effect against bacterial biofilms (reduction) (bacterial biofilms): less than twofold
CC[C@H](C)[C@H](N)C(=O)O [Isoleucine, L-isoleucine] | 10 to 30 | support (improve) bacterial biofilm growth |  | 
CC(C)C[C@H](N)C(=O)O [Leucine, L-leucine] | 10 to 30 | support (improve) bacterial biofilm growth | 10 to 30 | 
NCCCC[C@H](N)C(=O)O [Lysine, L-lysine] |  | support (improve) bacterial biofilm growth |  | activation at 1 % (S. aureus [2]): 10 to 30%; activation at 1 % (S. aureus [3]): 10 to 30%
CSCC[C@H](N)C(=O)O [Methionine, L-methionine] |  | support (improve) bacterial biofilm growth | 10 to 30 | 
NCCC[C@H](N)C(=O)O [Ornithine, L-ornithine] | 10 to 30 | support (improve) bacterial biofilm growth | 10 to 30 | 
N[C@@H](Cc1ccccc1)C(=O)O [Phenylalanine, L-phenylalanine] | 10 to 30 | support (improve) bacterial biofilm growth | 10 to 30 | 
NCCOP(=O)(O)O [Phosphoethanolamine, 0-phosphoethanolamine] |  |  |  | Reduce B Biofilm (S. aureus [2]; [4]): ● (a single dot [ie. •] signifies minor effect (from about 10 to about 30% change)); Reduce B Biofilm (S. aureus [3]; [5]): ● (a single dot [ie. •] signifies minor effect (from about 10 to about 30% change)); Anti-biofilm effect against bacterial biofilms (reduction) (bacterial biofilms): less than twofold
N[C@@H](CO)C(=O)O [Serine, L-serine] | 10 to 30 | support (improve) bacterial biofilm growth | 10 to 30 | 
NCCS(=O)(=O)O [Taurine, L-taurine] | 10 to 30 | support (improve) bacterial biofilm growth | 10 to 30 | 
C[C@@H](O)[C@H](N)C(=O)O [Threonine, L-threonine] |  | support (improve) bacterial biofilm growth | 10 to 30 | 
N[C@@H](Cc1c[nH]c2ccccc12)C(=O)O [Tryptophan, L-tryptophan] |  |  |  | Effect on bacterial or fungal biofilms in both assays [1]: neutral
N[C@@H](Cc1ccc(O)cc1)C(=O)O [Tyrosine, L-tyrosine] |  |  |  | Effect on biofilms [1]: neutral effect on biofilms; Effect on bacterial or fungal biofilms in both assays [1]: neutral
OCC(O)CO [glycerol] |  |  |  | Effect on biofilms [1]: not found to have antibiofilm effects

From US11779559B2, “Compositions for treating fungal and bacterial biofilms and methods of using the same” (priority 2017, dated 2023)
